Results reported in patent US20130251731A1, “Tau Acetylation in the Pathogenesis of Alzheimers Disease and Other Related Tauopathies” (THE TRUSTEES OF THE UNIVERSITY OF PENNSYLVANIA, priority 2012, published 2013).
Entries after “also recorded” stand apart in the source; their conditions may differ.

How the values were obtained:
[1] = tested on: K18-PL acetylation in QBI-293 cells; experiment: Cell-based K18-PL acetylation assay in QBI-293 cells; conditions: C646 to block CBP/p300, 3MA-induced acetylation, overnight
[2] = tested on: 2N4R-tau and tau-K18 auto-acetylation activity; experiment: Tau acetyltransferase inhibition studies (pre-incubation with cysteine blocking agents, tubulin or microtubules); type: biochemical; conditions: pre-incubated with 0.5 mM NEM or 4 mM IA
Procedure: FIG. 14, comprising FIGS. 14a-14c, is a series of images depicting the results of experiments showing that cysteine blocking agents inhibit tau-mediated acetyltransferase activity. […] FIG. 14c is an image showing bovine brain derived microtubule associated protein (MAP-rich) fractions containing all CNS tau isoforms that were evaluated in acetyltransferase assays in the presence of increased tubulin concentrations followed by immunoblotting with Ac-K280 and total tau (T46) antibodies.
Acetyltransferase assays using purified tau proteins were performed as previously described and subjected to autoradiography or immunoblotting using the following anti-tau antibodies: anti-tau polyclonal (Dako, A0024, 1:10,000), anti-acetyl lysine (Cell Signaling, #9441, 1:1000), anti-tau monoclonal (T46, 1:1000), anti-mouse tau (T49, 1:1000), anti-acetylated tau (Ac-K280, 1:1000), anti-acetylated tau (Ac-K369, 1:1000). For tau acetyltransferase inhibition studies, tau proteins were pre-incubated with 0.5 mM N-ethyl-maleimide (NEM), 4 mM iodoacetamide (IA), or increasing concentrations of either tubulin (5-10 μM) or pre-formed microtubules (5 μM). […] Reaction products were readily distinguished between 2N4R-tau (Mr ˜65 kD) and tau-K18 (Mr ˜15 kD) by immunoblotting using acetylated tau (Ac-K280) and total tau (E10) antibodies. […]

HDAC6 = HDAC6 siRNA in HEK-T40 cells, immunoblotting; type: cell-based, human
Procedure: FIG. 7, comprising FIG. 7A through FIG. 7D, depicts the results of experiments which illustrate the characterization of the ac-K280 site-specific acetylated tau antibody. FIG. 7A illustrates the results of an experiment where recombinant WT-K18 or ΔK280-K18 proteins (1 μg) were incubated in the presence or absence of acetyl-CoA or CBP as indicated and K280 acetylation was determined by immunoblotting using anti-ac-K280 and a polyclonal antibody raised to exon 10 of tau protein (E10). FIG. 7B illustrates the results of an experiment where QBI-293 cells were co-transfected with WT-T40 tau or ΔK280-T40 mutant tau expression plasmids along with CBP to promote tau acetylation. 1, 2, and 5 μg total cell lysates were analyzed by western blotting using anti-ac-K280, total tau (T46), and GAPDH antibodies. […] Scale bar represents 50 μm. FIG. 7D illustrates the results of an experiment where control or HDAC6 siRNA expressing HEK-T40 cells were analyzed by immunoblotting using ac-K280, total tau, HDAC6, and GAPDH antibodies.
The longest human tau isoform (designated Tau-T40) was cloned into pCDNA5/TO vector (Invitrogen) and site-directed mutagenesis (Quikchange kit; Stratagene) was used to create K→Q or K→R mutations at residues K163, K280, K281, K369 as indicated. Indicated plasmids were transfected into either QBI-293 cells or stably expressing HEK-T40 cells using Fugene (Roche). […]

[3] = biological target: T1, tau-K18 acetyltransferase activity (auto-acetylation) (Homo sapiens, UniProt P10636); experiment: Tau auto-acetylation filter binding assay, kinetic analysis; type: biochemical
T1 construct: made in house
Procedure: (§1) Reactions were assembled in 50 μl of reaction buffer containing 50 mM Tris pH 8.0, 100 μM EDTA, and 10% glycerol. Unless specifically noted, reactions contained 25 μM of either WT tau-K18 or tau-K18-2CA mutant. The reactions were initiated by the addition of [^3H]-acetyl-CoA (2.35 Ci mmol^−1, Perkin Elmer) at concentrations ranging from 2.5 μM to 1 mM, incubated at 37° C., and allowed to proceed for 1 hr (unless otherwise noted). Reactions were stopped by the addition of 10 μl of 3 mM CoA, and 25 μl of the reaction was then spotted to a P81 filter paper (Whatman), washed in 10 mM HEPES pH 7.5 three times, and dried using acetone. Incorporated [^3H]-acetyl-CoA was then measured using the Perkin Elmer Tri-Carb 2800TR Liquid Scintillation Analyzer, and the molar amount of acetyl groups incorporated into tau were calculated from a standard curve of the radiolabeled acetyl-CoA.

[4] = tested on: tau-K18 acetyltransferase activity (auto-acetylation); experiment: as above; type: biochemical; conditions: tau-K18 proteins containing sequential deletions
Procedure: as §1

tubulin = experiment: MT assembly light-scattering assay; type: biochemical; conditions: 30 μM tubulin, 40 μM tau proteins, 2 mM GTP
Procedure: (§2) Recombinant full-length T40, 4R-tau MT-binding domain K18, or tau fibrils were acetylated by incubation with [^14C]-labeled acetyl-CoA in the presence or absence of CBP. FIG. 1A illustrates that the reaction products were analyzed by SDS-PAGE and Coomassie blue staining followed by overnight radiographic exposure using STORM phosphor-imager software. FIG. 1B depicts the results of an experiment where T40 or K18 proteins were incubated with acetyl-CoA and/or recombinant CBP and reaction products were subjected to immunoblot analysis using a polyclonal anti-tau-specific antibody for MT repeat domain (E10) and an anti-acetyl-lysine antibody. FIG. 1C is a graph depicting the MT assembly activities of K18 proteins as evaluated in light-scattering assays. Tubulin monomers (30 μM) were mixed with 40 μM tau proteins in MT assembly buffer supplemented with 2 mM guanosine triphosphate. MT assembly was determined by monitoring absorbance every minute at 350 nm using a SpectraMax plate reader. […] FIG. 1D is a graph illustrating the results of experiments where Tau proteins (10 μM) were evaluated in fibrillization reactions using 10 μM heparin to induce assembly. […] Samples were analysed by SDS-PAGE and Coomassie staining to monitor fibril formation. FIG. 1F illustrates the results of experiments where four-hour time points from fibrillization reactions were analysed by negative-staining EM. […]

[5] = Heparin-induced tau fibrillization assay quantified by Thioflavin-T binding; type: biochemical; conditions: 10 μM tau proteins, 10 μM heparin, 4-h incubation
Procedure: as §2
Tau K18 protein was either mock acetylated or acetylated in vitro using acetyl-CoA substrate as indicated elsewhere herein. […] Protein concentrations were determined using the bicinchoninic acid protein assay (Pierce) with bovine serum albumin as the standard. Acetylated K18 and mock-treated K18 were assessed by a light-scattering assay as described elsewhere herein. […] The extent of fibrillization was assessed at different time points by ThT fluorescence assay, sedimentation analysis and negative staining EM as described elsewhere herein. For ThT fluorescence assay, ThT diluted in 100 mM glycine buffer (pH 8.5) was added and fluorometric readings were taken at 450 nm (excitation) and 510 nm (emission). […]

T1 sequence (P10636 561-689 limits assumed): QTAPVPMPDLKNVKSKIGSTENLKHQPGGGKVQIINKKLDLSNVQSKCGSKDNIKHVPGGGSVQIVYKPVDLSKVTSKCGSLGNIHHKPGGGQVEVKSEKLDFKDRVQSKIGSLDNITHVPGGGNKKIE

Question: Which K18-PL acetylation levels [1] does the source give for `CC1=NN(c2ccc(C(=O)O)cc2)C(=O)/C1=C\c1ccc(-c2cc(C)c(C)cc2[N+](=O)[O-])o1` [C646] here?
Answer: The K18-PL acetylation levels was “no effect on K18-PL acetylation levels”.

Question: Which “2N4R-tau or tau-K18 auto-acetylation activity after pretreatment” value [2] does the source give for `CCN1C(=O)C=CC1=O` [N-ethyl-maleimide] here?
Answer: The value was “abrogation of 2N4R-tau or tau-K18 auto-acetylation activity; also recorded: minimal acetyltransferase activity”.

Question: With `NC(=O)CI` [iodoacetamide] as the compound, how does the “2N4R-tau or tau-K18 auto-acetylation activity after pretreatment” value [2] read?
Answer: Its value is “abrogation of 2N4R-tau or tau-K18 auto-acetylation activity; also recorded: minimal acetyltransferase activity”.

Question: With “HDAC6 small interfering RNA: HDAC6 siRNA (Invitrogen) 5′-AAAGUUGGAACUCUCACGGUGCAGC-3′ (SEQ ID NO: 1) (listed as RNA, chemistry not given here)” as the compound, how does the “levels of ac-K280” value (HDAC6) read?
Answer: The value was “increased levels of ac-K280”.

Question: With “tau-K18: recombinant tau fragment encompassing all four MT-binding repeats” as the compound, how does the “Kcat [auto]” value ([3]; auto-acetylation, this study) read?
Answer: Its value is 8.3e-05 s⁻¹.

Question: What about the Km ([3]; auto-acetylation, this study, read-out: Km AcCoA [auto]) of the same compound?
Answer: The Km was 147 µM.

Question: And the “turnover rate Kcat” value ([3]; saturation plot against acetyl-CoA concentration)?
Answer: The value was 8.3e-05 s⁻¹.

Question: And the Km [4]?
Answer: The Km was 147 µM.

Question: And the “MT assembly (absorbance at 350 nm)” value (tubulin)?
Answer: Its value is “promoted tubulin assembly into MTs”.

Question: What about the “fibrillization (ThT)” value [5] of the same compound?
Answer: The value was “did not fibrillize during the 4-h incubation period”.
